In ChEMBL document CHEMBL4052656, “The synthesis and evaluation of triazolopyrimidines as anti-tubercular agents” (Bioorg Med Chem, 2017):
Calls of active or inactive are those of the source. The calls are words filed in the database; no cut-off is given here.

Experiments:
[1] = Selectivity index, ratio of IC50 for human HepG2 cells to MIC90 for Mycobacterium tuberculosis H37Rv; assay type: toxicity; settings: read-out: Selectivity Index
[2] = system: Mycobacterium tuberculosis; assay: Bacteriostatic activity against replicating Mycobacterium tuberculosis H37Rv by agar dilution method; assay type: functional
[3] = system: Mycobacterium tuberculosis; assay: Bactericidal activity against replicating Mycobacterium tuberculosis H37Rv after 21 days by agar dilution method; assay type: functional

Row | SMILES | selectivity ratio [1] | Activity [2] | Activity [3]
1 | COc1ccc(CCNc2cc(-c3ccc(F)cc3)nc3ncnn23)cc1 | > 21 |  | 
2 | COc1ccc(CC(=O)Nc2cc(-c3ccccc3)nc3ncnn23)cc1 |  | Active | inactive
3 | FC(F)(F)Oc1ccc(CCNc2cc(-c3ccccc3)nc3ncnn23)cc1 |  | Active | inactive
4 | COc1ccc(CCNc2cc(-c3ccccn3)nc3ncnn23)cc1 |  | Active | inactive
